From US20190133128A1, “Fungicidal pyridazinones” (FMC Corporation, priority 2017, published 2019)

Assays:
Type in all cases: in vivo
Phakopsora pachyrhizi = test: Test A: preventive spray on soybean seedlings, Asian soybean rust, visual disease rating; details: for pest or weed control at 250 ppm: Phakopsora pachyrhizi
Botrytis cinerea = test: Test C: preventive spray on tomato seedlings, gray mold, visual disease rating; details: for pest or weed control at 250 ppm: Botrytis cinerea
From the text: (§1) General protocol for preparing test solutions for Tests AG: the test compounds were first dissolved in acetone in an amount equal to 3% of the final volume and then suspended at the desired concentration (in ppm) in acetone and purified water (50/50 mix by volume) containing the surfactant PEG400 (polyhydric alcohol esters). The resulting test suspensions were then used in Tests AG. Compounds were sprayed at a concentration of 250 ppm or other indicated rate to the point of run-off on the test plants. The test solution was sprayed to the point of run-off on tomato seedlings. […] A dash (-) indicates no test results.

[1] = test system: Puccinia recondita f. sp. tritici; test: Test F: preventive spray on wheat seedlings, wheat leaf rust, visual disease rating; details: for pest or weed control at 250 ppm: Puccinia recondita
From the text: as §1, with “wheat” for “tomato”, “seedlings. The following day the seedlings were inoculated with a spore suspension of Puccinia recondita f. sp. tritici;” for “seedlings.”

Phytophthora infestans = test: whole plant or invertebrate; details: for pest or weed control at 250 ppm: Phytophthora infestans, in Solanum lycopersicum, read-out: Test D disease control rating; for Test D disease control rating: tomato seedlings
[2] = test system: Erysiphe graminis f. sp. tritici; test: Test G: preventive spray on wheat seedlings, wheat powdery mildew, visual disease rating; details: for pest or weed control at 250 ppm: Blumeria graminis, 192 h
From the text: as §1, with “wheat” for “tomato”

Zymoseptoria tritici = test: Test E: preventive spray on wheat seedlings, wheat leaf blotch, visual disease rating; details: for pest or weed control at 250 ppm: Zymoseptoria tritici
From the text: as §1, with “wheat” for “tomato”

[3] = 250 ppm, 100 = 100% disease control, 0 = no control

SMILES | Test A disease control rating (Phakopsora pachyrhizi; [3]) [%] | Test C disease control rating (Botrytis cinerea; [3]) [%] | Test F disease control rating [1, 3] [%] | Test D disease control rating (Phytophthora infestans; [3]) [%] | Test G disease control rating [2, 3] [%] | Test E disease control rating (Zymoseptoria tritici; [3]) [%] | other results
Cn1ncc(O)c(C(=O)Nc2ccc(C(F)(F)F)cc2F)c1=O [Compound 50, N-[2-Fluoro-4-(trifluoromethyl)phenyl]-2,3-dihydro-5-hydroxy-2-methyl-3-oxo-4-pyridazinecarboxamide] |  |  |  |  |  |  | pest or weed control at 250 ppm (Phakopsora pachyrhizi; [3]): 0%; pest or weed control at 250 ppm (Botrytis cinerea; [3]): 85%; pest or weed control at 250 ppm [1, 3]: 100%; pest or weed control at 250 ppm (Phytophthora infestans): 99%; pest or weed control at 250 ppm [2, 3]: 98%; pest or weed control at 250 ppm (Zymoseptoria tritici; [3]): 98%
Cn1ncc(O)c(C(=O)Nc2cccc(C(F)(F)F)c2)c1=O [Compound 56] | 0 | 0 | 92 | 61 | 35 | 0 | 
Cn1ncc(OS(C)(=O)=O)c(C(=O)Nc2ccccc2F)c1=O [Compound 104] | 87 | 0 | 89 | 0 | 65 | 94 | 
Cn1ncc(Cl)c(C(=O)Nc2ccc(OC(F)(F)F)cc2)c1=O [Compound 41, 5-Chloro-2,3-dihydro-2-methyl-3-oxo-N-[4-(trifluoromethoxy)phenyl]-4-pyridazinecarboxamide] |  |  |  |  |  |  | pest or weed control at 250 ppm (Phakopsora pachyrhizi; [3]): 87%; pest or weed control at 250 ppm (Botrytis cinerea; [3]): 0%; pest or weed control at 250 ppm [1, 3]: 89%; pest or weed control at 250 ppm (Phytophthora infestans): 0%; pest or weed control at 250 ppm [2, 3]: 0%; pest or weed control at 250 ppm (Zymoseptoria tritici; [3]): 97%
Cn1ncc(Cl)c(C(=O)Nc2ccc(OC(F)(F)F)cc2F)c1=O [Compound 51] |  |  |  |  |  |  | Test A disease control rating (Phakopsora pachyrhizi; 125 ppm): 99%; Test C disease control rating (Botrytis cinerea; 125 ppm): 97%; Test F disease control rating ([1]; 125 ppm): 96%; Test D disease control rating (Phytophthora infestans; 125 ppm): 57%; Test G disease control rating ([2]; 125 ppm): 0%; Test E disease control rating (Zymoseptoria tritici; 125 ppm): 89%
Cn1ncc(OS(C)(=O)=O)c(C(=O)Nc2ccc(OC(F)F)cc2)c1=O [Compound 97, N-[4-(Difluoromethoxy)phenyl]-2,3-dihydro-2-methyl-5-[(methylsulfonyl)oxy]-3-oxo-4-pyridazinecarboxamide] |  |  |  |  |  |  | pest or weed control at 250 ppm (Phakopsora pachyrhizi; [3]): 95%; pest or weed control at 250 ppm (Botrytis cinerea; [3]): 40%; pest or weed control at 250 ppm [1, 3]: 99%; pest or weed control at 250 ppm (Phytophthora infestans): 95%; pest or weed control at 250 ppm [2, 3]: 91%; pest or weed control at 250 ppm (Zymoseptoria tritici; [3]): 100%
Cn1ncc(Cl)c(C(=O)Nc2cccc(C(F)(F)F)c2)c1=O [Compound 64] |  |  |  |  |  |  | Test A disease control rating (Phakopsora pachyrhizi; 265 ppm): 92%; Test C disease control rating (Botrytis cinerea; 265 ppm): 76%; Test F disease control rating ([1]; 265 ppm): 91%; Test D disease control rating (Phytophthora infestans; 265 ppm): 53%; Test G disease control rating ([2]; 265 ppm): 0%; Test E disease control rating (Zymoseptoria tritici; 265 ppm): 94%
Cn1ncc(Cl)c(C(=O)Nc2ccccc2-c2ccc(F)c(F)c2F)c1=O [Compound 32] | 94 | 0 | 96 | 0 | 0 | 0 | 
Cn1ncc(O)c(C(=O)Nc2ccc(F)cc2)c1=O [Compound 40] | 56 | 96 | 95 | 73 | 92 | 96 | 
O=C(Nc1ccc(OC(F)(F)F)cc1)c1c(O)cnn(-c2cccc(C(F)(F)F)c2)c1=O [Compound 71] | 12 | 0 | 0 | 0 | 0 | 0 | 
Cn1ncc(OS(C)(=O)=O)c(C(=O)Nc2ccccc2-c2cc(F)c(F)c(F)c2)c1=O [Compound 103] | 84 | 0 | 90 | 0 | 73 | 96 | 
Cn1ncc(OS(C)(=O)=O)c(C(=O)Nc2ccc(S(F)(F)(F)(F)F)cc2)c1=O [Compound 99, [4-[[[2,3-Dihydro-2-methyl-5-[(methylsulfonyl)oxy]-3-oxo-4-pyridazinyl]carbonyl]amino]phenyl]pentafluorosulfur] |  |  |  |  |  |  | pest or weed control at 250 ppm (Phakopsora pachyrhizi; [3]): 99%; pest or weed control at 250 ppm (Botrytis cinerea; [3]): 50%; pest or weed control at 250 ppm [1, 3]: 98%; pest or weed control at 250 ppm (Phytophthora infestans): 92%; pest or weed control at 250 ppm [2, 3]: 83%; pest or weed control at 250 ppm (Zymoseptoria tritici; [3]): 100%
Cn1ncc(OC(=O)C(C)(C)C)c(C(=O)Nc2ccc(OC(F)(F)F)cc2)c1=O [Compound 53] | 79 | 39 | 100 | 99 | 98 | 79 | 
COc1cccc(NC(=O)c2c(O)cnn(C)c2=O)c1 [Compound 55] | 0 | 0 | 89 | 0 | 0 | 0 | 
Cc1ccc(NC(=O)c2c(Cl)cnn(C)c2=O)cc1 [Compound 31] | 65 | 92 | 95 | 0 | 0 | 0 | 
Cn1ncc(O)c(C(=O)Nc2ccccc2Br)c1=O [Compound 35] | 0 | 0 | 98 | 71 | 0 | 0 | 
Cn1ncc(Cl)c(C(=O)Nc2cccc(OC(F)(F)F)c2)c1=O [Compound 63] |  |  |  |  |  |  | Test A disease control rating (Phakopsora pachyrhizi; 270 ppm): 59%; Test C disease control rating (Botrytis cinerea; 270 ppm): 53%; Test F disease control rating ([1]; 270 ppm): 86%; Test D disease control rating (Phytophthora infestans; 270 ppm): 53%; Test G disease control rating ([2]; 270 ppm): 48%; Test E disease control rating (Zymoseptoria tritici; 270 ppm): 98%
Cn1ncc(O)c(C(=O)Nc2ccc(-c3ccc(F)cc3)cc2)c1=O [Compound 46] | 77 | 16 | 80 | 40 | 0 | 0 | 
Cn1ncc(O)c(C(=O)Nc2ccc(S(C)(=O)=O)cc2)c1=O [Compound 49] | 0 | 0 | 68 | 0 | 0 | 0 | 
Cn1ncc(Cl)c(C(=O)Nc2ccccc2-c2ccc(Cl)cc2)c1=O [Compound 33] | 48 | 0 | 97 | 0 | 0 | 0 | 
Cn1ncc(OS(C)(=O)=O)c(C(=O)Nc2ccc(OC(F)(F)F)cc2)c1=O [Compound 90] | 98 | 60 | 98 | 78 | 0 | 100 | 
Cn1ncc(O)c(C(=O)Nc2ccc(OC(F)F)cc2)c1=O [Compound 47, N-[4-(Difluoromethoxy)phenyl]-2,3-dihydro-5-hydroxy-2-methyl-3-oxo-4-pyridazinecarboxamide] |  |  |  |  |  |  | pest or weed control at 250 ppm (Phakopsora pachyrhizi; [3]): 38%; pest or weed control at 250 ppm (Botrytis cinerea; [3]): 0%; pest or weed control at 250 ppm [1, 3]: 99%; pest or weed control at 250 ppm (Phytophthora infestans): 88%; pest or weed control at 250 ppm [2, 3]: 0%; pest or weed control at 250 ppm (Zymoseptoria tritici; [3]): 77%
Cn1ncc(O)c(C(=O)Nc2ccccc2-c2cc(F)c(F)c(F)c2)c1=O [Compound 27] | 0 | 0 | 98 | 0 | 0 | 0 | 
O=C(Nc1ccc(OC(F)(F)F)cc1)c1c(O)cnn(-c2ccccc2)c1=O [Compound 60] | 0 | 0 | 88 | 88 | 57 | 92 | 
